{"source": "patent US11607422B2", "about": "“Uttroside B and derivatives thereof as therapeutics for hepatocellular carcinoma” (Rajiv Gandhi Centre for Biotechnology, an Autonomous …, priority 2016, dated 2023)", "assay_type_in_all_cases": "cell-based, human", "key": {"Akt in HepG2 cells": {"tested_on": "Akt in HepG2 cells", "assay": "Western blot of Akt phosphorylation", "conditions": "HepG2, no basal activation of Akt", "protocol": "(§1) FIGS. 4A-4E are images showing Uttroside B inhibits MAPK and mTOR signaling, some of the crucial survival signals in liver cancer. […] HepG2 cells were treated with Uttroside B for different time intervals (0-240 min) and the whole cell lysate was resolved on a 10% gel and immunoblotted against phospho-ERK1/2 and phospho-Akt antibodies. Taxol was used as a positive control. […] HepG2 cells were treated with Uttroside B at different time intervals and the whole cell lysate was resolved on an 8% gel and immunoblotted against phospho-mTOR (2448) and phospho-mTOR (2481) antibodies.\n(§2) Western blot analysis. Approximately 0.5×10^6 cells were grown on 60 mm culture plates and exposed to drugs as indicated for the desired time. The cells were then scraped out, washed in ice cold 1× PBS and pelleted down at 13000 rpm for 2 min. […]"}, "HepG2 cells": {"tested_on": "HepG2 cells", "assay": "Clonogenic assay in HepG2 cells", "conditions": "72 h treatment, then 1 week", "protocol": "FIG. 2A is a graph comparison of IC50 of Uttroside B in a panel of cancer cells of different origin. The cancer cell lines HeLa, A375, HepG2, MDA-MB-231, HL 60, A549 and HCT116 were treated with Uttroside B as indicated, incubated for 72 h and the cell viability was assessed by MTT assay. FIG. 2B is a graph showing dose dependent effect of Uttroside B in the liver cancer cell lines and in normal immortalized hepatocytes. The liver cancer cell lines HepG2, Hep3B, SKHEP-1, Huh-7 and normal hepatocytes (Chang liver), were treated with Uttroside B incubated for 72 h and the cell viability was assessed by MTT assay. FIG. 2C is a graph comparison of IC50 of Uttroside B with sorafenib. HepG2 cells were treated with Uttroside B as indicated, incubated for 72 h, and the cell viability was assessed by MTT assay. FIG. 2D is an image of the morphological changes induced by Uttroside B in HepG2 cells. HepG2 cells were treated with Uttroside B as indicated and incubated for 72 h. FIG. 2E is an image showing Uttroside B inhibits the clonogenic potential of HepG2 cells. HepG2 cells were treated with different concentrations of Uttroside B for 72 h and the clonogenic assay was performed. […] The clones developed were counted and plotted as a graph. Colony containing more than four cells was counted as one clone. […]"}, "[1]": {"tested_on": "mTOR pathway in HepG2 cells", "assay": "Western blot of mTOR and downstream target phosphorylation", "protocol": "as §1, §2\nUttroside B inhibits mTOR signaling, a crucial survival signal in liver cancer. […] Concomitantly, the phosphorylation of p70S6 kinase and 4E-BP-1, two m-TOR substrates whose phosphorylation can be considered as the read out of m-TOR activity, was found reduced in response to Uttroside B-treatment. […]"}}, "data": [{"smiles": "C[C@H](CC[C@@]1(O)O[C@H]2C[C@H]3[C@@H]4CC[C@H]5C[C@@H](O[C@@H]6O[C@H](CO)[C@H](O[C@@H]7O[C@H](CO)[C@@H](O)[C@H](O[C@@H]8OC[C@@H](O)[C@H](O)[C@H]8O)[C@H]7O[C@@H]7O[C@H](CO)[C@@H](O)[C@H](O)[C@H]7O)[C@H](O)[C@H]6O)CC[C@]5(C)[C@H]4CC[C@]3(C)[C@H]2[C@@H]1C)CO[C@@H]1O[C@H](CO)[C@@H](O)[C@H](O)[C@H]1O", "note": "[Uttroside B]", "values": [{"measurement": "activation of Akt", "setting": "Akt in HepG2 cells", "result": "no significant role in activating Akt pathway"}, {"measurement": "anti-clonogenic potential (colonies formed)", "setting": "HepG2 cells", "result": "drastic dose dependent reduction in both number and size of the colonies formed"}, {"measurement": "phosphorylation of p70S6 kinase and 4E-BP-1", "setting": "[1]", "result": "found reduced"}, {"measurement": "phosphorylation of mTOR", "setting": "[1]; different time intervals", "result": "time dependent decrease in the phosphorylation of m-TOR at 2448 and 2481 phosphorylation sites"}]}]}
